According to patent US7723329B2, “Substituted-3-sulfonylindazole derivatives as 5-hydroxytryptamine-6 ligands” (Wyeth LLC, priority 2005, dated 2010):

Each compound was assayed against T1, human cloned 5-HT6 receptors (Homo sapiens, UniProt P50406) (assay: 5-HT6 binding affinity, [3H]-LSD displacement). Conditions: membranes of Hela cells expressing human cloned 5-HT6 receptors; [3H]-LSD 3.0 nM; 120 minutes at room temperature.
T1 construct: expressed in transfected cells; host or cells: HeLa cells
Procedure: The affinity of test compounds for the serotonin 5-HT6 receptor was evaluated in the following manner. Cultured Hela cells expressing human cloned 5-HT6 receptors were harvested and centrifuged at low speed (1,000×g) for 10.0 minutes to remove the culture media. The harvested cells were suspended in half volume of fresh physiological phosphate buffered saline solution and recentrifuged at the same speed. This operation was repeated. The collected cells were then homogenized in ten volumes of 50 mM Tris.HCl (pH 7.4) and 0.5 mM EDTA. The homogenate was centrifuged at 40,000×g for 30.0 min and the precipitate was collected. The obtained pellet was resuspended in 10 volumes of Tris.HCl buffer and recentrifuged at the same speed. The final pellet was suspended in a small volume of Tris.HCl buffer and the tissue protein content was determined in aliquots of 10-25 μl volumes. […] The volume of the suspended cell membranes was adjusted to give a tissue protein concentration of 1.0 mg/ml of suspension. The prepared membrane suspension (10 times concentrated) was aliquoted in 1.0 ml volumes and stored at −70° C. until used in subsequent binding experiments.
The bound complex caught on the filter disk was allowed to air dry and the radioactivity is measured in a Packard TopCount® equipped with six photomultiplier detectors, after the addition of 40.0 μl Microscint®-20 scintillant to each shallow well. The unifilter plate was heat-sealed and counted in a PackardTopCount® with a tritium efficiency of 31.0%.
Specific binding to the 5-HT6 receptor was defined as the total radioactivity bound less the amount bound in the presence of 10.0 μM unlabeled methiothepin. Binding in the presence of varying concentrations of test compound was expressed as a percentage of specific binding in the absence of test compound. The results were plotted as log % bound versus log concentration of test compound. […] A linear regression line of data points was plotted, from which the IC50 value is determined and the Ki value is determined based upon the following equation: Ki=IC50/(1+L/KD) where L was the concentration of the radioactive ligand used and KD is the dissociation constant of the ligand for the receptor, both expressed in nM.

T1 sequence (P50406 whole entry): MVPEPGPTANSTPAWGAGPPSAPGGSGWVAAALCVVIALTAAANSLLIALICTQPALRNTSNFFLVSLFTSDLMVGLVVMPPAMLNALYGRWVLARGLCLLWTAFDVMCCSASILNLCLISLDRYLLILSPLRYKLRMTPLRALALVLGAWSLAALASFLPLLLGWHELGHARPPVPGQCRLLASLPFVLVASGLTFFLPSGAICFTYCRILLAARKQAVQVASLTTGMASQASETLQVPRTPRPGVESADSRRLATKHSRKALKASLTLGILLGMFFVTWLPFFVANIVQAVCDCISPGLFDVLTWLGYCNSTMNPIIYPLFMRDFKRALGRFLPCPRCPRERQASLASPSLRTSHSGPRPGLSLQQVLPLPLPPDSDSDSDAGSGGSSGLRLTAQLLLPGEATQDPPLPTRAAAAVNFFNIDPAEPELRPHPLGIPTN

First: CN(C)CCOc1ccc2[nH]nc(S(=O)(=O)c3ccccc3)c2c1 [Example 1, [2-(3-Benzenesulfonyl-1H-indazol-5-yloxy)-ethyl]-dimethyl-amine]
Second: CCN(C)CCOc1ccc2[nH]nc(S(=O)(=O)c3ccccc3)c2c1 [Example 2, [2-(3-Benzenesulfonyl-1H-indazol-5-yloxy)-ethyl]-ethyl-methyl-amine]
The Ki of the first is lower: 11 to 25 nM for the first, over 45 nM for the second.

First: O=S(=O)(c1ccccc1)c1n[nH]c2ccc(OCCN3CCCCC3)cc12 [Example 3, 3-Benzenesulfonyl-5-(2-piperidin-1-yl-ethoxy)-1H-indazole]
Second: O=S(=O)(c1ccccc1)c1n[nH]c2ccc(OCCN3CCCC3)cc12 [Example 11, 3-Benzenesulfonyl-5-(2-pyrrolidin-1-yl-ethoxy)-1H-indazole]
The Ki of the first is higher: 26 to 35 nM for the first, 0.01 to 10 nM for the second.

First: CCNCCOc1ccc2[nH]nc(S(=O)(=O)c3ccccc3)c2c1 [Example 4, [2-(3-Benzenesulfonyl-1H-indazol-5-yloxy)-ethyl]-ethyl-amine]
Second: CNCCOc1ccc2[nH]nc(S(=O)(=O)c3ccccc3)c2c1 [Example 12, [2-(3-Benzenesulfonyl-1H-indazol-5-yloxy)-ethyl]-methyl-amine]
The Ki of the first is lower: 0.01 to 10 nM for the first, 11 to 25 nM for the second.

First: CCN(CC)CCOc1ccc2[nH]nc(S(=O)(=O)c3ccccc3)c2c1 [Example 5, [2-(3-Benzenesulfonyl-1H-indazol-5-yloxy)-ethyl]-diethyl-amine]
Second: CCN(CC)CCOc1ccc2[nH]nc(S(=O)(=O)c3cccc4ccccc34)c2c1 [Example 33, Diethyl-{2-[3-(naphthalene-1-sulfonyl)-1H-indazol-5-yloxy]-ethyl}-amine]
The Ki of the first is higher: 36 to 45 nM for the first, 0.01 to 10 nM for the second. The second binds more tightly here.

First: CC(C)NCCOc1ccc2[nH]nc(S(=O)(=O)c3ccccc3)c2c1 [Example 6, [2-(3-Benzenesulfonyl-1H-indazol-5-yloxy)-ethyl]-isopropyl-amine]
Second: NCCOc1ccc2[nH]nc(S(=O)(=O)c3ccccc3)c2c1 [Example 13, 2-(3-Benzenesulfonyl-1H-indazol-5-yloxy)-ethylamine]
The Ki of the first is lower: 11 to 25 nM for the first, 36 to 45 nM for the second.

First: CCCCNCCOc1ccc2[nH]nc(S(=O)(=O)c3ccccc3)c2c1 [Example 7, [2-(3-Benzenesulfonyl-1H-indazol-5-yloxy)-ethyl]-butyl-amine]
Second: CCCCNCCOc1ccc2[nH]nc(S(=O)(=O)c3cccc4ccccc34)c2c1 [Example 34, Butyl-{2-[3-(naphthalene-1-sulfonyl)-1H-indazol-5-yloxy]-ethyl}-amine]
The Ki of the first is higher: 26 to 35 nM for the first, 0.01 to 10 nM for the second. The second binds more tightly here.

Compared with `O=S(=O)(c1ccccc1)c1n[nH]c2ccc(OCCNC3CC3)cc12` [Example 8, [2-(3-Benzenesulfonyl-1H-indazol-5-yloxy)-ethyl]-cyclopropyl-amine], `O=S(=O)(c1ccccc1)c1n[nH]c2ccc(OCCNC3CCCC3)cc12` [Example 9, 3-Benzenesulfonyl-5-(2-cyclopentyl-1-yl-ethoxy)-1H-indazole] is lower in Ki: 26 to 35 nM for the first, 11 to 25 nM for the second. The second binds more tightly here.

First: O=S(=O)(c1ccccc1)c1n[nH]c2ccc(OCCN3CCOCC3)cc12 [Example 10, 3-Benzenesulfonyl-5-(2-morpholin-4-yl-ethoxy)-1H-indazole]
Second: O=S(=O)(c1cccc2ccccc12)c1n[nH]c2ccc(OCCN3CCOCC3)cc12 [Example 39, 5-(2-Morpholin-4-yl-ethoxy)-3-(naphthalene-1-sulfonyl)-1H-indazole]
The Ki of the first is higher: over 45 nM for the first, 11 to 25 nM for the second.

`CNCCCOc1ccc2[nH]nc(S(=O)(=O)c3cccc4ccccc34)c2c1` [Example 15, Methyl-{3-[3-(naphthalene-1-sulfonyl)-1H-indazol-5-yloxy]-propyl}-amine] and `CNCCOc1ccc2[nH]nc(S(=O)(=O)c3cccc4ccccc34)c2c1` [Example 31, Methyl-{2-[3-(naphthalene-1-sulfonyl)-1H-indazol-5-yloxy]-ethyl}-amine] fall in the same range of Ki: 0.01 to 10 nM for the first, 0.01 to 10 nM for the second.

`CCNCCCOc1ccc2[nH]nc(S(=O)(=O)c3cccc4ccccc34)c2c1` [Example 16, Ethyl-{3-[3-(naphthalene-1-sulfonyl)-1H-indazol-5-yloxy]-propyl}-amine] and `CCNCCOc1ccc2[nH]nc(S(=O)(=O)c3cccc4ccccc34)c2c1` [Example 32, Ethyl-{2-[3-(naphthalene-1-sulfonyl)-1H-indazol-5-yloxy]-ethyl}-amine] fall in the same range of Ki: 0.01 to 10 nM for the first, 0.01 to 10 nM for the second.

`CCN(C)CCCOc1ccc2[nH]nc(S(=O)(=O)c3cccc4ccccc34)c2c1` [Example 17, Ethyl-methyl-{3-[3-(naphthalene-1-sulfonyl)-1H-indazol-5-yloxy]-propyl}-amine] and `CCN(C)CCOc1ccc2[nH]nc(S(=O)(=O)c3cccc4ccccc34)c2c1` [Example 29, Ethyl-methyl-{2-[3-(naphthalene-1-sulfonyl)-1H-indazol-5-yloxy]-ethyl}-amine] fall in the same range of Ki: 0.01 to 10 nM for the first, 0.01 to 10 nM for the second.

`CCN(CC)CCCOc1ccc2[nH]nc(S(=O)(=O)c3cccc4ccccc34)c2c1` [Example 18, Diethyl-{3-[3-(naphthalene-1-sulfonyl)-1H-indazol-5-yloxy]-propyl}-amine] and `CN(C)CCOc1ccc2[nH]nc(S(=O)(=O)c3cccc4ccccc34)c2c1` [Example 27, Dimethyl-{2-[3-(naphthalene-1-sulfonyl)-1H-indazol-5-yloxy]-ethyl}-amine] fall in the same range of Ki: 0.01 to 10 nM for the first, 0.01 to 10 nM for the second.

`CCCCNCCCOc1ccc2[nH]nc(S(=O)(=O)c3cccc4ccccc34)c2c1` [Example 19, Butyl-{3-[3-(naphthalene-1-sulfonyl)-1H-indazol-5-yloxy]-propyl}-amine] and `CC(C)NCCCOc1ccc2[nH]nc(S(=O)(=O)c3cccc4ccccc34)c2c1` [Example 22, Isopropyl-{3-[3-(naphthalene-1-sulfonyl)-1H-indazol-5-yloxy]-propyl}-amine] fall in the same range of Ki: 0.01 to 10 nM for the first, 0.01 to 10 nM for the second.

`O=S(=O)(c1cccc2ccccc12)c1n[nH]c2ccc(OCCCNC3CC3)cc12` [Example 20, Cyclopropyl-{3-[3-(naphthalene-1-sulfonyl)-1H-indazol-5-yloxy]-propyl}-amine] and `O=S(=O)(c1cccc2ccccc12)c1n[nH]c2ccc(OCCNC3CC3)cc12` [Example 36, Cyclopropyl-{2-[3-(naphthalene-1-sulfonyl)-1H-indazol-5-yloxy]-ethyl}-amine] fall in the same range of Ki: 0.01 to 10 nM for the first, 0.01 to 10 nM for the second.

`O=S(=O)(c1cccc2ccccc12)c1n[nH]c2ccc(OCCCNC3CCCC3)cc12` [Example 21, Cyclopentyl-{3-[3-(naphthalene-1-sulfonyl)-1H-indazol-5-yloxy]-propyl}-amine] and `O=S(=O)(c1cccc2ccccc12)c1n[nH]c2ccc(OCCNC3CCCC3)cc12` [Example 35, Cyclopentyl-{2-[3-(naphthalene-1-sulfonyl)-1H-indazol-5-yloxy]-ethyl}-amine] fall in the same range of Ki: 0.01 to 10 nM for the first, 0.01 to 10 nM for the second.

`O=S(=O)(c1cccc2ccccc12)c1n[nH]c2ccc(OCCCN3CCCC3)cc12` [Example 23, 3-(Naphthalene-1-sulfonyl)-5-(3-pyrrolidin-1-yl-propoxy)-1H-indazole] and `O=S(=O)(c1cccc2ccccc12)c1n[nH]c2ccc(OCCCN3CCCCC3)cc12` [Example 24, 3-(Naphthalene-1-sulfonyl)-5-(3-piperidin-1-yl-propoxy)-1H-indazole] fall in the same range of Ki: 0.01 to 10 nM for the first, 0.01 to 10 nM for the second.

`O=S(=O)(c1cccc2ccccc12)c1n[nH]c2ccc(OCCCN3CCOCC3)cc12` [Example 25, 5-(3-Morpholin-4-yl-propoxy)-3-(naphthalene-1-sulfonyl)-1H-indazole] and `O=S(=O)(c1cccc2ccccc12)c1n[nH]c2ccc(OCCN3CCCC3)cc12` [Example 37, 3-(Naphthalene-1-sulfonyl)-5-(2-pyrrolidin-1-yl-ethoxy)-1H-indazole] fall in the same range of Ki: 0.01 to 10 nM for the first, 0.01 to 10 nM for the second.

`NCCCOc1ccc2[nH]nc(S(=O)(=O)c3cccc4ccccc34)c2c1` [Example 26, 3-[3-(Naphthalene-1-sulfonyl)-1H-indazol-5-yloxy]-propylamine] and `NCCOc1ccc2[nH]nc(S(=O)(=O)c3cccc4ccccc34)c2c1` [Example 30, 2-[3-(Naphthalene-1-sulfonyl)-1H-indazol-5-yloxy]-ethylamine] fall in the same range of Ki: 0.01 to 10 nM for the first, 0.01 to 10 nM for the second.

`CC(C)NCCOc1ccc2[nH]nc(S(=O)(=O)c3cccc4ccccc34)c2c1` [Example 28, Isopropyl-{2-[3-(naphthalene-1-sulfonyl)-1H-indazol-5-yloxy]-ethyl}-amine] and `O=S(=O)(c1cccc2ccccc12)c1n[nH]c2ccc(OCCN3CCCCC3)cc12` [Example 38, 3-(Naphthalene-1-sulfonyl)-5-(2-piperidin-1-yl-ethoxy)-1H-indazole] fall in the same range of Ki: 0.01 to 10 nM for the first, 0.01 to 10 nM for the second.

`CNCCOc1ccc2c(c1)c(S(=O)(=O)c1cccc3ccccc13)nn2C` [Example 40, Methyl-{2-[1-methyl-3-(naphthalene-1-sulfonyl)-1H-indazol-5-yloxy]-ethyl}-amine] and `CN(C)CCOc1ccc2c(c1)c(S(=O)(=O)c1cccc3ccccc13)nn2C` [Example 41, Dimethyl-{2-[1-methyl-3-(naphthalene-1-sulfonyl)-1H-indazol-5-yloxy]-ethyl}-amine] fall in the same range of Ki: 0.01 to 10 nM for the first, 0.01 to 10 nM for the second.
